The values that follow come from publication PMC6501426 (Clinical Epigenetics, 2019).

Series [1] has as its system methylated UCHL1 promoter EGFP reporter in HCT116 cells. Nature of the series: UCHL1 promoter demethylation assay (EGFP expression, FACS) in HCT116. The class given is cell-based, human. Conditions: 5 days, HCT116 with methylated pUCHL1 vector. On the procedure: Human colon cancer HCT116 (ATCC, VA, USA) cells were propagated in McCoy’s 5A medium (Euroclone, Milan, Italy) with 10% fetal bovine serum (FBS; Euroclone), 2 mM L-glutamine (Euroclone), and antibiotics (100 U/mL penicillin, 100 µg/mL streptomycin) (Euroclone). For the treatments with MC3353, 5-AZA, and DAC as positive controls, 2 × 10^4 cells were seeded in 6-well plates in triplicate. Cells were treated every 2 days, and the medium was changed. On day 5, cells were observed under a fluorescent microscope. The nuclei were counterstained with DAPI (10 μg/mL, Invitrogen, Tournai, Belgium).
Fluorescence of EGFP and DAPI in living cells was analyzed by Cytation™ 5 Cell Imaging Multi-Mode Reader (BioTeK, Milan, Italy).
Before the transfection, the pUMLIEP vector was linearized by with ClaI restriction enzyme (New England Biolabs, Milan, Italy) and then it was methylated by SssI-methylase (New England Biolabs, Milan, Italy) for 60 min. The methylated vector was transfected into HCT116 cells using Lipofectamine™2000 (Invitrogen, Monza, Italy) and Opti-MEM® (Gibco, Monza, Italy), and stably introduced clones were selected with puromycin (1.0 μg/mL, Sigma-Aldrich, Milan, Italy). The detailed protocol for the generation of cells highly responsive to DNA demethylating agents is described in [27].
Next, the demethylating activity of MC3353 was evaluated in cells transfected with luciferase and EGFP reporter genes driven by the UCHL1 promoter. The UCHL1 promoter is silenced by methylation in human colon cancer and can be demethylated by specific treatments, inducing expression of Metridia luciferase and EGFP reporter genes. In particular, the pUCHL1 vector, after methylation, was transfected into HCT116 colon cancer cells, and the stable clone was obtained by puromycin selection. Afterwards, cells were treated with 5-AZA (5 μM), with DAC (5 μM), or with MC3353 (0.1 μM) for 5 days. Such a low MC3353 dose was used because of its cytotoxicity at higher concentrations in long treatments.

Series [2] concerns MMP2 mRNA in HCT116 cells. Nature of the series: qPCR of MMP2 in HCT116. The class given is cell-based, human. Conditions: MC3353 0.1 and 1 μM 24 h; 5-AZA, DAC 5 days, also at 0.1 to 1 μM. An excerpt: RNAs were extracted by ReliaPrep™ RNA Tissue Miniprep (Promega, Madison, WI, USA) and reverse transcribed with PrimeScript RT Master Mix (Takara, Kusatsu, Shiga, Japan). cDNAs were amplified by a qPCR reaction using GoTaq qPCR Master Mix (Promega) and analyzed with the oligonucleotide pairs specific for the target genes. Relative amounts, determined with the 2^(−ΔCt) method, were normalized with respect to the human housekeeping gene L32. The primers used are as follows: L32 (forward: 5′-[…]-3′, reverse: 5′-[…]-3′), E-cadherin (forward: 5′-[…]-3′, reverse: 5′-[…]-3′), and MMP2 (forward: 5′-[…]-3′, reverse: 5′-[…]-3′).
Prompted by these findings, we investigated the ability of MC3353 to modulate EMT pathway, using 5-AZA and DAC as reference drugs. […] The levels of mRNA transcripts of E-cadherin and matrix metalloproteinase-2 (MMP2) were determined. E-cadherin is involved in the maintenance of the epithelial identity and in the control of tumor invasiveness, whereas MMP2, through degradation of type IV collagen, the most abundant component of the basement membrane, controls an essential step for metastatic progression of most cancers as well as for induction of angiogenesis.
Background: In qPCR the cycle at which signal appears reflects the starting amount.

For the next series, the system named is RPMI1788 cells. The series can be described thus: Nuclear morphology analysis (Hoechst/PI). The format is cell-based. Conditions: 72 h; starting from 5 μM; normal cells. On the procedure: Proliferation and viability of U-937, KG-1, RAJI, PC-3, MDA-MB-231, RPMI1788, PBMCs, and PHA_PBMCs were assessed by trypan blue exclusion assays at the indicated time points. Nuclear morphology changes associated with apoptosis and necrosis were evaluated by fluorescence microscopy after Hoechst and propidium iodide (PI) staining as previously described.
Fig. 6 Nuclear morphology analysis in U-937, RAJI, KG-1, and RPMI1788 cells. Cells were treated with increasing doses of MC3353. Upper panels—after 72 h of treatment, the nuclear morphology was analyzed by fluorescence microscopy after Hoechst and PI staining. Pictures are representative of three independent experiments. Lower panels—the results of cell counting are represented as the mean (± SD) of three independent experiments

The test system of series [3] is DNMT3A protein level in PC-3 cells. The series can be described thus: Western blot of DNMT3A protein in PC-3. The format is cell-based, human. Conditions: 24 h; 1 μM requested for the effect. From the text:
(§1) Cells were lysed in Laemmli buffer; subsequently, the proteins were resolved by sodium dodecyl sulfate-polyacrylamide gel electrophoresis and transferred to a 0.45-μm nitrocellulose membrane (Bio-Rad Laboratories, Hercules, CA). The following primary antibodies were used for immunoblotting: α-E-cadherin (BD Transduction Laboratories, Franklin Lakes, NJ), α-MMP2 (Abcam), α-DNMT3a (Santa Cruz Biotechnologies, Dallas, TX), and α-GAPDH (Millipore Corp., Bedford, MA), used as a loading control. The immune complexes were detected with horseradish peroxidase-conjugated species-specific secondary antiserum (Bio-Rad Laboratories, Milan, Italy) then by enhanced chemiluminescence reaction (Bio-Rad Laboratories, Milan, Italy). Densitometric analysis of protein expression was performed by using the Fiji ImageJ image processing package.
GAPDH was used as a loading control. Blots are representative of two independent experiments
For orientation: In western blotting, separated proteins are transferred to a membrane and probed.

The test system of series [4] is MMP2 protein in PC-3 cells. The series can be described thus: Western blot of MMP2 in PC-3. The class given is cell-based, human. Conditions: 1 μM, 24 h.
Source text: as §1
Fig. 8 Effects of MC3353 on E-cadherin and MMP2 protein expression levels in PC-3 cancer cells. Cells were treated with vehicle (DMSO) used as control (CTR) or MC3353 for 24 h. a E-cadherin and MMP2 protein detection by western blot. GAPDH was used as a loading control. Blots are representative of three independent experiments. b Densitometric analysis of E-cadherin and MMP2 protein expression. Significance is represented as *p < 0.05 related to the control groups. Data were obtained from three independent experiments and expressed as mean ± SEM

The subject of series [5] is primary osteosarcoma cell lines. Nature of the series: Growth inhibition in panel of primary osteosarcoma cell lines. The class given is cell-based. Conditions: Homo sapiens; range over the osteosarcoma panel. As to the method: To perform osteosarcoma cell growth inhibition experiments, 2 × 10^5 cells/well were plated, and MC3353 (0.1–30 μM) or DAC (0.5 μM) was added after 24 h. Cells were exposed for up to 96 h before being counted by Trypan blue vital cell count (Sigma-Aldrich, Milan, Italy). In parallel, the cells were treated with DMSO-containing medium as a control. The highest final concentration of DMSO in the medium was < 0.005%, and DMSO had no effect on cell growth.
IC50 values of compounds against cellular viability were determined by using nonlinear regression fitting curves with GraphPad Prism 8 or CalcuSyn software The t test used for statistical analyses was performed with GraphPad Prism 8. All the tests were one-tailed, and a p value < 0.05 was considered statistically significant.

With `Nc1ncn([C@H]2C[C@H](O)[C@@H](CO)O2)c(=O)n1` [DAC, 5-aza-2′-deoxycytidine, reference compound], in series [1] (5 μM), the “EGFP gene expression induction (FACS)” value is 49.7%. The “MMP2 mRNA expression, HCT116” value in series [2] was “increased MMP2 level”.
Turning to `O=C(Nc1ccc(NC(=O)c2ccc(Nc3ccnc4ccccc34)cc2)cc1)OCc1ccccc1` [MC3353, Benzyl (4-(4-(quinolin-4-ylamino)benzamido)phenyl)carbamate], the “EGFP gene expression induction (FACS)” value in series [1] (0.1 μM) came to 81.4%. Besides, the “cell death modality, RPMI1788” value in the series with RPMI1788 cells is given as “mixed type of cell death induction, mainly necrosis”. The “DNMT3A protein expression level (western blot), PC-3” value in series [3] is reported as “DNMT3A protein downregulation was observed”. In series [4], the “MMP2 protein level (western blot, densitometry), PC-3” value is given as “reduced MMP2 protein levels”. The “MMP2 mRNA expression, HCT116” value in series [2] was “strongly downregulated”. This molecule also returned an IC50 in series [5] of 1.1 to 2.4 µM.

The IC50 is the concentration at which inhibition is half-maximal. A low value points to greater potency in that assay.
